The structures appear in SMILES notation. Where two headings read alike, the source gives them in different places.

The source of these data is patent US20100160411A1, “BENZOXATHIINE AND BENZOXATHIOLE DERIVATIVES AND USES THEREOF” (Wyeth, priority 2006, published 2010).

In experiment [1] the target is T1, human 5-hydroxytryptamine-2C (h5-HT2C) receptor (Homo sapiens, UniProt P28335).
T1 construct: expressed in transfected cells; host or cells: CHO (Chinese Hamster Ovary) cells; membrane preparation
T1 sequence (P28335 33-458): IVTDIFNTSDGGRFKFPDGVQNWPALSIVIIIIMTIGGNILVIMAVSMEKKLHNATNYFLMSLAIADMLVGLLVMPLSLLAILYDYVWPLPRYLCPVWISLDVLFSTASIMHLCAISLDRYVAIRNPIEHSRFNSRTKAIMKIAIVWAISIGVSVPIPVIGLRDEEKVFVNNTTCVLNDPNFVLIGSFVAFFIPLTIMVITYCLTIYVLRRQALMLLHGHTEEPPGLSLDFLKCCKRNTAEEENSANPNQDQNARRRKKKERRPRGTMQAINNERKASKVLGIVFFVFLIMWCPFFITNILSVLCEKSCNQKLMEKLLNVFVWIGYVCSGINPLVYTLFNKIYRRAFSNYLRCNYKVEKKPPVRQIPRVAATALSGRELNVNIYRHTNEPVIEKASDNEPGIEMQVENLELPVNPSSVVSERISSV
In words: [125I]DOI binding to membranes of CHO cells expressing the h5-HT2C receptor.

Another experiment deals with T2, human 5-HT2C receptor (Homo sapiens, UniProt P28335).
T2 sequence (P28335 33-458): T1 sequence (P28335 33-458)
In words: calcium mobilization (FLIPR) in CHO cells stably expressing the human 5-HT2C receptor. It is filed as cell-based. For orientation: A change in cytosolic calcium serves as a functional read-out for many receptors and channels.

[2] abbreviates: read-out: 5-HT2C Binding Ki avg.

Turning to `COc1cc(CC(C)N)c(OC)cc1I` (stereo not shown) [[125I] DOI, reference compound], the Kd (usually a measure of binding affinity in units of concentration) in experiment [1] (saturation binding with increasing concentrations of [125I] DOI, read-out: dissociation constant, KD) worked out at 0.4 nM.
`CSc1ccc2c(c1)C(N1CCN(C)CC1)Cc1ccccc1S2` (stereo not shown) [Methiothepin, reference compound]: in experiment [1] (reference compounds, 95% confidence interval in parentheses, [125I]DOI radioligand, CHO cell membranes, read-out: Ki), the Ki – broadly, the equilibrium dissociation constant of an inhibitor or competing ligand from its target – came to 4.6 nM.
As for `NCC1CSc2cc(F)cc(-c3c(Cl)cccc3Cl)c2O1` (stereo not shown) [Example 1, C-[8-(2,6-Dichloro-phenyl)-6-fluoro-2,3-dihydro-benzo[1,4]oxathiin-2-yl]-methylamine], the Emax (as a rule, the size of the effect at its maximum, as opposed to the concentration needed) on human 5-HT2C receptor (CHO, read-out: 5-HT2C Function EMax (%)) came out at 70%. Besides, the EC50 (in general, the concentration giving half of the maximal effect) at human 5-HT2C receptor (calcium mobilization, CHO cells, FLIPR, read-out: 5-HT2C Function EC50) amounted to 356 nM. For the same compound, the Ki in experiment [1] (setting [2]) came to 0.535 nM.
With `NCC1CS(=O)(=O)c2cc(F)cc(-c3c(Cl)cccc3Cl)c2O1` (stereo not shown) [Example 3, C-[8-(2,6-Dichloro-phenyl)-6-fluoro-4,4-dioxo-3,4-dihydro-2H-4lambda*6*-benzo[1,4]oxathiin-2-yl]-methylamine], in experiment [1] (setting [2]), the Ki was 11.7 nM.
Same read-out and setting: as for `NCC1C[S+]([O-])c2cc(F)cc(-c3c(Cl)cccc3Cl)c2O1` (stereo not shown) [Example 2, C-[8-(2,6-Dichloro-phenyl)-6-fluoro-4-oxo-3,4-dihydro-2H-4lambda*4*-benzo[1,4]oxathiin-2-yl]-methylamine], the figure is 388 nM.
